Numbers after ± are expanded uncertainties.
How the values were obtained:
[1] = xn = mol fraction of the nth substance listed; conditions: 101.3 kPa, Liquid; for viscosity: Falling or rolling sphere viscometry; for speed of sound: Sing-around technique in a fixed-path interferometer; for mass density: Vibrating tube method
[2] = refractive index (Na D-line) (dimensionless); xn = mol fraction of the nth substance listed; conditions: 101.3 kPa, Liquid, Standard Abbe refractometry

CC[n+]1cccc(C)c1.O=S(=O)([N-]S(=O)(=O)C(F)(F)F)C(F)(F)F + O
Conditions	mass density, [1] [kg/m3]	refractive index, [2]	speed of sound, [1] [m/s]	viscosity, [1] [mPa·s]
298.15 K, x2 = 0.131	1481.91 ± 0.77	1.44197 ± 0.00037	1262.7 ± 1.5	29.75 ± 0.83
298.15 K, x2 = 0.189	1479.39 ± 0.89	1.44144 ± 0.00039	1264.6 ± 1.5	27.2 ± 0.79
298.15 K, x2 = 0.266	1473.92 ± 0.98	1.44013 ± 0.0004	1268.3 ± 1.5	23.89 ± 0.73
303.15 K, x2 = 0.131	1477.02 ± 0.77	1.44057 ± 0.00037	1251.8 ± 1.5	24.96 ± 0.73
303.15 K, x2 = 0.189	1474.49 ± 0.9	1.44005 ± 0.00038	1253.4 ± 1.5	22.92 ± 0.67
303.15 K, x2 = 0.266	1468.97 ± 0.98	1.43917 ± 0.00038	1257.1 ± 1.5	20.03 ± 0.59
308.15 K, x2 = 0.131	1472.16 ± 0.77	1.4391 ± 0.00038	1240.8 ± 1.5	21.21 ± 0.61
308.15 K, x2 = 0.189	1469.6 ± 0.9	1.43852 ± 0.00038	1242.3 ± 1.5	19.52 ± 0.56
308.15 K, x2 = 0.266	1464.04 ± 0.99	1.43769 ± 0.00037	1246 ± 1.5	17.09 ± 0.51
313.15 K, x2 = 0.131	1467.31 ± 0.77	1.43766 ± 0.00037	1229.9 ± 1.5	18.24 ± 0.51
313.15 K, x2 = 0.189	1464.73 ± 0.9	1.43716 ± 0.00038	1231.4 ± 1.5	16.84 ± 0.49
313.15 K, x2 = 0.266	1459.12 ± 0.99	1.43624 ± 0.00037	1234.9 ± 1.5	14.62 ± 0.45
318.15 K, x2 = 0.131	1462.48 ± 0.77	1.43623 ± 0.00037	1219.1 ± 1.5	15.79 ± 0.44
318.15 K, x2 = 0.189	1459.88 ± 0.91	1.43573 ± 0.00036	1220.5 ± 1.5	14.61 ± 0.42
318.15 K, x2 = 0.266	1454.22 ± 1	1.43533 ± 0.00036	1224 ± 1.5	12.74 ± 0.39
323.15 K, x2 = 0.131	1457.66 ± 0.77	1.4348 ± 0.00038	1208.4 ± 1.5	13.84 ± 0.38
323.15 K, x2 = 0.189	1455.04 ± 0.91	1.43425 ± 0.00036	1209.5 ± 1.5	12.88 ± 0.37
323.15 K, x2 = 0.266	1449.34 ± 1	1.43385 ± 0.00035	1213.2 ± 1.5	11.23 ± 0.34
328.15 K, x2 = 0.131	1452.87 ± 0.77	1.43338 ± 0.00038	1197.8 ± 1.5	12.27 ± 0.33
328.15 K, x2 = 0.189	1450.22 ± 0.91	1.43281 ± 0.00036	1199.2 ± 1.5	11.44 ± 0.32
328.15 K, x2 = 0.266	1444.47 ± 1	1.43261 ± 0.00035	1202.4 ± 1.5	9.965 ± 0.31
333.15 K, x2 = 0.131	1448.09 ± 0.77	1.43195 ± 0.00037	1187.3 ± 1.5	10.95 ± 0.29
333.15 K, x2 = 0.189	1445.42 ± 0.92	1.43142 ± 0.00036	1188.6 ± 1.5	10.21 ± 0.29
333.15 K, x2 = 0.266	1439.61 ± 1	1.43119 ± 0.00035	1191.8 ± 1.5	8.892 ± 0.28
338.15 K, x2 = 0.131	1443.32 ± 0.77	1.43052 ± 0.00038	1176.9 ± 1.5	9.815 ± 0.26
338.15 K, x2 = 0.189	1440.63 ± 0.92	1.42999 ± 0.00036	1178.2 ± 1.5	9.153 ± 0.26
338.15 K, x2 = 0.266	1434.78 ± 1	1.42974 ± 0.00035	1181.2 ± 1.5	7.977 ± 0.25
343.15 K, x2 = 0.131	1438.57 ± 0.77	1.42911 ± 0.00038	1166.6 ± 1.5	8.833 ± 0.23
343.15 K, x2 = 0.189	1435.85 ± 0.92	1.42853 ± 0.00036	1167.8 ± 1.5	8.239 ± 0.23
343.15 K, x2 = 0.266	1429.95 ± 1	1.42835 ± 0.00035	1170.8 ± 1.5	7.182 ± 0.23

CC[n+]1ccccc1C.O=S(=O)([N-]S(=O)(=O)C(F)(F)F)C(F)(F)F + O
Conditions	mass density, [1] [kg/m3]	refractive index, [2]	speed of sound, [1] [m/s]	viscosity, [1] [mPa·s]
298.15 K, x2 = 0.124	1498.88 ± 0.85	1.44635 ± 0.00039	1301.6 ± 1.5	54.52 ± 1.8
298.15 K, x2 = 0.172	1496.43 ± 0.92	1.44579 ± 0.00038	1302.6 ± 1.5	48.93 ± 1.6
298.15 K, x2 = 0.256	1490.94 ± 0.93	1.44479 ± 0.00038	1304.6 ± 1.4	40.5 ± 1.5
303.15 K, x2 = 0.124	1493.99 ± 0.85	1.44489 ± 0.00038	1290.2 ± 1.5	44.3 ± 1.6
303.15 K, x2 = 0.172	1491.53 ± 0.92	1.44442 ± 0.00039	1291.2 ± 1.5	39.95 ± 1.4
303.15 K, x2 = 0.256	1485.99 ± 0.93	1.44323 ± 0.00039	1293.2 ± 1.4	32.89 ± 1.1
308.15 K, x2 = 0.124	1489.12 ± 0.85	1.44343 ± 0.00038	1279 ± 1.5	36.58 ± 1.3
308.15 K, x2 = 0.172	1486.64 ± 0.92	1.44289 ± 0.00039	1279.9 ± 1.5	33.11 ± 1.1
308.15 K, x2 = 0.256	1481.06 ± 0.94	1.44178 ± 0.00038	1282.2 ± 1.4	27.38 ± 0.96
313.15 K, x2 = 0.124	1484.26 ± 0.85	1.44195 ± 0.00039	1267.9 ± 1.5	30.63 ± 1
313.15 K, x2 = 0.172	1481.77 ± 0.93	1.44136 ± 0.00038	1268.8 ± 1.5	27.84 ± 0.91
313.15 K, x2 = 0.256	1476.14 ± 0.94	1.44044 ± 0.00037	1271 ± 1.4	23.19 ± 0.8
318.15 K, x2 = 0.124	1479.43 ± 0.85	1.4405 ± 0.00039	1256.9 ± 1.5	25.97 ± 0.86
318.15 K, x2 = 0.172	1476.91 ± 0.93	1.43988 ± 0.00038	1257.8 ± 1.5	23.68 ± 0.76
318.15 K, x2 = 0.256	1471.25 ± 0.94	1.43914 ± 0.00036	1259.9 ± 1.4	19.85 ± 0.67
323.15 K, x2 = 0.124	1474.61 ± 0.85	1.43906 ± 0.00039	1246 ± 1.5	22.27 ± 0.72
323.15 K, x2 = 0.172	1472.08 ± 0.93	1.43853 ± 0.00037	1246.8 ± 1.5	20.38 ± 0.64
323.15 K, x2 = 0.256	1466.37 ± 0.95	1.43787 ± 0.00036	1248.8 ± 1.4	17.19 ± 0.57
328.15 K, x2 = 0.124	1469.81 ± 0.85	1.43777 ± 0.00038	1235.3 ± 1.5	19.27 ± 0.6
328.15 K, x2 = 0.172	1467.26 ± 0.93	1.4372 ± 0.00037	1236 ± 1.5	17.72 ± 0.55
328.15 K, x2 = 0.256	1461.5 ± 0.95	1.43662 ± 0.00036	1237.9 ± 1.4	14.95 ± 0.49
333.15 K, x2 = 0.124	1465.03 ± 0.85	1.43633 ± 0.00038	1224.6 ± 1.5	16.83 ± 0.53
333.15 K, x2 = 0.172	1462.46 ± 0.94	1.43586 ± 0.00037	1225.3 ± 1.5	15.44 ± 0.47
333.15 K, x2 = 0.256	1456.65 ± 0.96	1.43532 ± 0.00036	1227.1 ± 1.4	13.17 ± 0.42
338.15 K, x2 = 0.124	1460.28 ± 0.85	1.43494 ± 0.00038	1214 ± 1.5	14.77 ± 0.45
338.15 K, x2 = 0.172	1457.68 ± 0.94	1.43447 ± 0.00036	1214.6 ± 1.5	13.67 ± 0.41
338.15 K, x2 = 0.256	1451.82 ± 0.96	1.43398 ± 0.00035	1216.3 ± 1.4	11.71 ± 0.37
343.15 K, x2 = 0.124	1455.53 ± 0.85	1.43355 ± 0.00037	1203.5 ± 1.5	13.13 ± 0.37
343.15 K, x2 = 0.172	1452.91 ± 0.94	1.43315 ± 0.00036	1204.1 ± 1.5	12.18 ± 0.36
343.15 K, x2 = 0.256	1447.01 ± 0.96	1.43279 ± 0.00035	1205.6 ± 1.4	10.47 ± 0.33

From the NIST ThermoML archive (doi:10.1016/j.jct.2015.02.020)
